Assay results from patent US5585491A, “Antibacterial agents” (Otsuka Pharmaceutical Co., Ltd., priority 1995, dated 1996).
Values after ≈ are worked out from the molar mass of the structure shown. Where two headings read alike, the source gives them in different places.

Key:
Experiment in all cases: In vitro antibacterial activity, microtitration dilution method (MIC)
Assay type in all cases: cell-based
[1] = tested on: Streptococcus faecalis MGH-2; conditions: Enterococcus faecalis
Description: (§1) Agents & Chemoth., 6, 124 (1974), which is incorporated herein by reference.

[2] = tested on: Proteus rettgeri M 1771; conditions: Providencia rettgeri, M1771; Proteus rettgeri M 1771, microtitration dilution; read-out: Minimal Inhibitory Concentration MIC
Description: as §1

[3] = tested on: Streptococcus pneumoniae SV-1
Description: as §1

[4] = tested on: Klebsiella pneumoniae MGH-2; conditions: MGH2; Klebsiella pneumoniae MGH-2, microtitration dilution; read-out: Minimal Inhibitory Concentration MIC
Description: as §1

[5] = tested on: Pseudomonas aeruginosa UI-18; conditions: UI18; Pseudomonas aeruginosa UI-18, microtitration dilution; read-out: Minimal Inhibitory Concentration MIC
Description: as §1

[6] = tested on: Staphylococcus aureus UC-76
Description: as §1

[7] = tested on: Staphylococcus aureus H 228; conditions: H228; Staphylococcus aureus H 228, microtitration dilution; read-out: Minimal Inhibitory Concentration MIC
Description: (§2) The compounds of the invention display antibacterial activity when tested by the microtitration dilution method as described in Heifetz, et al, Antimicr. Agents & Chemoth., 6, 124 (1974), which is incorporated herein by reference. By use of this method, the followed minimum inhibitory concentration values (MICs in μg/mL) were obtained for representative compounds of the invention.

[8] = tested on: Enterobacter cloacae MA 2646
Description: as §2

[9] = tested on: Escherichia coli Vogel; conditions: read-out: Minimal Inhibitory Concentration MIC
Description: as §2

[10] = tested on: Streptococcus pyogenes C-203; conditions: C203; Streptococcus pyogenes C-203, microtitration dilution; read-out: Minimal Inhibitory Concentration MIC
Description: as §2

[11] = MGH2, Streptococcus faecalis MGH-2, microtitration dilution, read-out: Minimal Inhibitory Concentration MIC
[12] = SV1, Streptococcus pneumoniae SV-1, microtitration dilution, read-out: Minimal Inhibitory Concentration MIC
[13] = UC76, Staphylococcus aureus UC-76, microtitration dilution, read-out: Minimal Inhibitory Concentration MIC
[14] = MA2646, Enterobacter cloacae MA 2646, microtitration dilution, read-out: Minimal Inhibitory Concentration MIC
[15] = Escherichia coli Vogel, microtitration dilution
[16] = Enterobacter cloacae, MA2646, read-out: Minimal Inhibitory Concentration MIC

| MIC [8, 14] [µg/mL] | Structure (SMILES) | MIC [1, 11] [µg/mL] | MIC [2] [µg/mL] | MIC [3, 12] [µg/mL] | MIC [4] [µg/mL] | MIC [5] [µg/mL] | MIC [6, 13] [µg/mL] | MIC [7] [µg/mL] | MIC [9, 15] [µg/mL] | MIC [10] [µg/mL] | MIC [8, 16] [µg/mL] | MIC ([6]; Staphylococcus aureus, UC76, read-out: Minimal Inhibitory Concentration MIC) [µg/mL] | MIC ([9]; Escherichia coli) [µg/mL] | MIC ([1]; MGH2, read-out: Minimal Inhibitory Concentration MIC) [µg/mL] | MIC ([3]; Streptococcus pneumoniae, SV1, read-out: Minimal Inhibitory Concentration MIC) [µg/mL] |
| --- | --- | --- | --- | --- | --- | --- | --- | --- | --- | --- | --- | --- | --- | --- | --- |
| 0.025 (≈ 0.0696 µM) | Cc1c(F)c(N2CCNC(C)C2)cc2c1c(=O)c(C(=O)O)cn2C1CC1 (centres unmarked) [Ex. 7, 1-Cyclopropyl-6-fluoro-1,4-dihydro-5-methyl-7-(3-methyl-1-piperazinyl)-4-oxo-3-quinolinecarboxylic acid] | 0.1 (≈ 0.278 µM) | 0.2 (≈ 0.556 µM) | 0.025 (≈ 0.0696 µM) | 0.05 (≈ 0.139 µM) | 0.8 (≈ 2.23 µM) | 0.025 (≈ 0.0696 µM) | 0.1 (≈ 0.278 µM) | 0.013 (≈ 0.0362 µM) | 0.05 (≈ 0.139 µM) | – | – | – | – | – |
| – | Cc1c(F)c(N2CCC(N)C2)cc2c1c(=O)c(C(=O)O)cn2C1CC1 (centres unmarked) [Ex. 8, 7-(3-Amino-1-pyrrolidinyl)-1-cyclopropyl-6-fluoro-1,4-dihydro-5-methyl-4-oxo-3-quinolinecarboxylic acid] | 0.4 (≈ 1.16 µM) | 0.1 (≈ 0.29 µM) | 0.013 (≈ 0.0376 µM) | 0.1 (≈ 0.29 µM) | 0.4 (≈ 1.16 µM) | 0.025 (≈ 0.0724 µM) | 0.1 (≈ 0.29 µM) | 0.025 (≈ 0.0724 µM) | 0.025 (≈ 0.0724 µM) | 0.05 (≈ 0.145 µM) | – | – | – | – |
| 0.1 (≈ 0.268 µM) | Cc1c(F)c(N2CCC(C)(CN)C2)cc2c1c(=O)c(C(=O)O)cn2C1CC1 (centres unmarked) [Ex. 9, 7-[3-(Aminomethyl)-3-methyl-1-pyrrolidinyl]-1-cyclopropyl-6-fluoro-1,4-dihydro-5-methyl-4-oxo-3-quinolinecarboxylic acid] | 0.1 (≈ 0.268 µM) | 0.8 (≈ 2.14 µM) | 0.006 (≈ 0.0161 µM) | 0.4 (≈ 1.07 µM) | 1.6 (≈ 4.28 µM) | 0.006 (≈ 0.0161 µM) | 0.025 (≈ 0.0669 µM) | 0.1 (≈ 0.268 µM) | 0.013 (≈ 0.0348 µM) | – | – | – | – | – |
| – | Cc1c(F)c(N2CCNCC2)c(Cl)c2c1c(=O)c(C(=O)O)cn2C1CC1 [Ex. 10, 8-Chloro-1-cyclopropyl-6-fluoro-1,4-dihydro-5-methyl-4-oxo-7-(1-piperazinyl)-3-quinolinecarboxylic acid] | 0.2 (≈ 0.527 µM) | 0.2 (≈ 0.527 µM) | 0.1 (≈ 0.263 µM) | 0.1 (≈ 0.263 µM) | 0.2 (≈ 0.527 µM) | 0.025 (≈ 0.0658 µM) | 0.05 (≈ 0.132 µM) | 0.025 (≈ 0.0658 µM) | 0.2 (≈ 0.527 µM) | 0.05 (≈ 0.132 µM) | – | – | – | – |
| – | Cc1c(F)c(N2CCC(N)C2)c(Cl)c2c1c(=O)c(C(=O)O)cn2C1CC1 (centres unmarked) [Ex. 11, 7-(3-Amino-1-pyrrolidinyl)-8-chloro-1-cyclopropyl-6-fluoro-1,4-dihydro-5-methyl-4-oxo-3-quinolinecarboxylic acid] | 0.05 (≈ 0.132 µM) | 0.05 (≈ 0.132 µM) | 0.025 (≈ 0.0658 µM) | 0.05 (≈ 0.132 µM) | 0.2 (≈ 0.527 µM) | 0.013 (≈ 0.0342 µM) | 0.025 (≈ 0.0658 µM) | 0.013 (≈ 0.0342 µM) | 0.05 (≈ 0.132 µM) | 0.05 (≈ 0.132 µM) | – | – | – | – |
| – | CCn1cc(C(=O)O)c(=O)c2c(C)c(F)c(N3CCNCC3)c(F)c21 [Ex. 12, 1-Ethyl-6,8-difluoro-1,4-dihydro-5-methyl-4-oxo-7-(1-piperazinyl)-3-quinolinecarboxylic acid] | 3.1 (≈ 8.82 µM) | 0.4 (≈ 1.14 µM) | 6.3 (≈ 17.9 µM) | 0.2 (≈ 0.569 µM) | 1.6 (≈ 4.55 µM) | – | 0.8 (≈ 2.28 µM) | – | 12.5 (≈ 35.6 µM) | 0.05 (≈ 0.142 µM) | 0.2 (≈ 0.569 µM) | 0.05 (≈ 0.142 µM) | – | – |
| – | CCn1cc(C(=O)O)c(=O)c2c(C)c(F)c(N3CCC(N)C3)c(F)c21 (centres unmarked) [Ex. 13, 7-(3-Amino-1-pyrrolidinyl)-1-ethyl-6,8-difluoro-1,4-dihydro-5-methyl-4-oxo-3-quinolinecarboxylic acid] | – | 0.4 (≈ 1.14 µM) | – | 0.2 (≈ 0.569 µM) | 1.6 (≈ 4.55 µM) | 0.1 (≈ 0.285 µM) | 0.4 (≈ 1.14 µM) | 0.05 (≈ 0.142 µM) | 3.1 (≈ 8.82 µM) | 0.05 (≈ 0.142 µM) | – | – | 0.8 (≈ 2.28 µM) | 1.6 (≈ 4.55 µM) |
| 0.1 (≈ 0.23 µM) | Cc1c(F)c(N2CCNCC2)c(F)c2c1c(=O)c(C(=O)O)cn2-c1ccc(F)cc1F [Ex. 14, 6,8-Difluoro-1-(2,4-difluorophenyl)-1,4-dihydro-5-methyl-4-oxo-7-(1-piperazinyl)-3-quinolinecarboxylic acid] | 0.4 (≈ 0.919 µM) | 0.4 (≈ 0.919 µM) | 0.4 (≈ 0.919 µM) | 0.4 (≈ 0.919 µM) | 0.8 (≈ 1.84 µM) | 0.05 (≈ 0.115 µM) | 0.2 (≈ 0.459 µM) | 0.05 (≈ 0.115 µM) | 0.4 (≈ 0.919 µM) | – | – | – | – | – |
